Laboratory results from patent US8586611B2 (priority 2005, dated 2013).

Assays:
Format in all cases: in vivo
Phytophthora infestans [1] = assay: whole plant or invertebrate; conditions: tomato late blight, sprayed the day before inoculation
[2] = test system: Erysiphe graminis f. sp. tritici; assay: Test E: wheat powdery mildew, spray the day before inoculation (disease rating, 100 = 100% disease control); conditions: sprayed the day before inoculation, 7 days at 20° C.
Method in brief: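 Protective test: spores of E. graminis f. sp. tritici dusted on wheat seedlings one day after run-off spraying of test suspension (acetone/water with 250 ppm surfactant; 200 ppm = 500 g/ha). Ratings after 7 days in growth chamber at 20° C, 100 = full control, 0 = none, relative to controls.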

Plasmopara viticola = assay: Test B: grape downy mildew, spray 24 h after inoculation (disease rating, 100 = 100% disease control); conditions: sprayed 24 h after inoculation
Method in brief: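 This is a curative spray test, applied 24 h after inoculation. Compounds in 50/50 acetone–water with 250 ppm Trem 014 surfactant were sprayed to run-off on P. viticola-infected seedlings, with 200 ppm equating to 500 g/ha. Plants were kept 5 days in a 20 °C growth chamber, then 24 h humid, and scored 0–100 for disease control relative to controls.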

Phytophthora infestans [3] = assay: whole plant or invertebrate; conditions: tomato late blight, sprayed 17 h after inoculation
[4] = unmarked compounds (no asterisk, not 40 or 10 ppm)

Row | Structure (SMILES) | Test C disease rating (100 = 100% disease control, 0 = no disease control) (Phytophthora infestans [1]; [4]) | Test E disease rating (100 = 100% disease control, 0 = no disease control) [2, 4] | Test B disease rating (100 = 100% disease control, 0 = no disease control) (Plasmopara viticola; [4]) | Test D disease rating (100 = 100% disease control, 0 = no disease control) (Phytophthora infestans [3]; [4]) | other results
1 | Cc1cc(C(F)(F)F)nn1CC(=O)N1CCC(c2nc(C(=O)N(C)C(c3ccc(Cl)cc3)C(F)(F)F)cs2)CC1 (stereo not drawn) [compound 253] |  |  |  |  | Test C disease rating (100 = 100% disease control, 0 = no disease control) (Phytophthora infestans [1]; tested at 40 ppm (*)): 90; Test E disease rating (100 = 100% disease control, 0 = no disease control) ([2]; tested at 40 ppm (*)): 0; Test B disease rating (100 = 100% disease control, 0 = no disease control) (Plasmopara viticola; tested at 40 ppm (*)): 96; Test D disease rating (100 = 100% disease control, 0 = no disease control) (Phytophthora infestans [3]; tested at 40 ppm (*)): 67
2 | COc1ccccc1C(C)N(C)C(=O)c1csc(C2CCN(C(=O)Cn3nc(C(F)(F)F)cc3C)CC2)n1 (stereo not drawn) [compound 255] |  |  |  |  | Test C disease rating (100 = 100% disease control, 0 = no disease control) (Phytophthora infestans [1]; tested at 10 ppm (**)): 9; Test E disease rating (100 = 100% disease control, 0 = no disease control) ([2]; tested at 10 ppm (**)): 0; Test B disease rating (100 = 100% disease control, 0 = no disease control) (Plasmopara viticola; tested at 10 ppm (**)): 25; Test D disease rating (100 = 100% disease control, 0 = no disease control) (Phytophthora infestans [3]; tested at 10 ppm (**)): 0
3 | C[C@@H](NC(=O)c1csc(C2CCN(C(=O)Cc3cccc(Br)c3)CC2)n1)c1ccc(F)cc1 [compound 271] | 67 | 0 | 7 | 0 | 
4 | C[C@@H](NC(=O)c1csc(C2CCN(C(=O)Cc3cccc(Br)c3)CC2)n1)C1CCCCC1 [compound 272] | 50 | 0 | 14 | 0 | 
5 | C[C@@H](NC(=O)c1csc(C2CCN(C(=O)Cc3cccc(Br)c3)CC2)n1)c1ccc([N+](=O)[O-])cc1 [compound 273] | 0 | 0 | 44 | 0 | 
6 | Cc1ccc([C@@H](C)NC(=O)c2csc(C3CCN(C(=O)Cc4cccc(Br)c4)CC3)n2)cc1 [compound 274] | 37 | 0 | 29 | 0 | 
7 | C[C@@H](NC(=O)c1csc(C2CCN(C(=O)Cc3cccc(Br)c3)CC2)n1)c1ccccc1F [compound 276] | 17 | 0 | 30 | 0 | 
8 | C[C@@H](NC(=O)c1csc(C2CCN(C(=O)Cc3cccc(Br)c3)CC2)n1)c1cccc(C(F)(F)F)c1 [compound 277] | 9 | 0 | 15 | 0 | 
9 | C[C@@H](NC(=O)c1csc(C2CCN(C(=O)Cc3cccc(Br)c3)CC2)n1)c1ccc(Cl)cc1 [compound 280] | 24 | 0 | 0 | 0 | 
10 | COc1cccc([C@@H](C)NC(=O)c2csc(C3CCN(C(=O)Cc4cccc(Br)c4)CC3)n2)c1 [compound 281] | 0 | 0 | 15 | 0 | 
11 | C=CCN(C(=O)c1csc(C2CCN(C(=O)Cc3cc(C)ccc3C)CC2)n1)[C@H](C)c1ccccc1 [compound 284] | 21 | 0 | 10 | 0 | 
12 | Cc1ccc(C)c(CC(=O)N2CCC(c3nc(C(=O)N(C(C)C)[C@H](C)c4ccccc4)cs3)CC2)c1 [compound 285] | 25 | 0 | 10 | 0 | 
